Source: patent publication US4997829A, “Penem compounds, and use thereof” (Suntory Limited, priority 1985, dated 1991)

Tests used:
Test in all cases: Minimum inhibitory concentration (MIC), agar plate dilution method
Assay type in all cases: cell-based
K. pneumoniae PC1602 = conditions: Klebsiella pneumoniae, PC1602; 10^6 CFU inoculated, 37° C., 18 hours
Description: (§1) With regard to the novel compounds obtained according to this invention and the compounds of Reference Examples, their minimum inhibitory concentrations (MIC) were determined by the agar plate dilution method in accordance with the MIC measuring standard method of The Chemotherapeutic Society of Japan, whereby 10^6 colony forming units were inoculated and the minimal concentration to inhibit the microbial growth after inclubation at 37° C. for 18 hours were determined, as shown as μg/ml in Table.

B. fragilis V-280-1 = conditions: Bacteroides fragilis, V2801; 10^6 CFU inoculated, 37° C., 18 hours
Description: as §1

E. coli W3630/Rms213 = conditions: Escherichia coli, W3630/RMS213, 18 h, read-out: minimum inhibitory concentration (MIC)
Description: as §1

Al. fecalis IFO13111 = conditions: 10^6 CFU inoculated, 37° C., 18 hours
Description: as §1

Pr. vulgaris GN7919 = conditions: Proteus vulgaris, GN7919; 10^6 CFU inoculated, 37° C., 18 hours
Description: as §1

Ser. marcescens IMA 1136 = conditions: Serratia marcescens, IMA1136; 10^6 CFU inoculated, 37° C., 18 hours
Description: as §1

E. coli W3630/Rms212 = conditions: Escherichia coli, W3630/RMS212, 18 h, read-out: minimum inhibitory concentration (MIC)
Description: as §1

B. fragilis GM7000 = conditions: Bacteroides fragilis, GM7000; 10^6 CFU inoculated, 37° C., 18 hours
Description: as §1

M. luteus ATCC9341 = conditions: Micrococcus luteus, ATCC9341; 10^6 CFU inoculated, 37° C., 18 hours
Description: as §1

Pr. morganii IFO3848 = conditions: Morganella morganii, IFO3848; 10^6 CFU inoculated, 37° C., 18 hours
Description: as §1

E. coli NIHI JC-2 = conditions: Escherichia coli, NIHIJC2; 10^6 CFU inoculated, 37° C., 18 hours
Description: as §1

F. varium ATCC8501 = conditions: Fusobacterium varium, ATCC8501; 10^6 CFU inoculated, 37° C., 18 hours
Description: as §1

Ent. cloacae 963 = conditions: Enterobacter cloacae, 963; 10^6 CFU inoculated, 37° C., 18 hours
Description: as §1

S. aureus FAD209P JC-1 = conditions: Staphylococcus aureus, FAD209PJC1; 10^6 CFU inoculated, 37° C., 18 hours
Description: as §1

Compound	MIC (K. pneumoniae PC1602) [µg/mL]	MIC (B. fragilis V-280-1) [µg/mL]	MIC (E. coli W3630/Rms213) [µg/mL]	MIC (Al. fecalis IFO13111) [µg/mL]	MIC (Pr. vulgaris GN7919) [µg/mL]	MIC (Ser. marcescens IMA 1136) [µg/mL]	MIC (E. coli W3630/Rms212) [µg/mL]	MIC (B. fragilis GM7000) [µg/mL]	MIC (M. luteus ATCC9341) [µg/mL]	MIC (Pr. morganii IFO3848) [µg/mL]	MIC (E. coli NIHI JC-2) [µg/mL]	MIC (F. varium ATCC8501) [µg/mL]	MIC (Ent. cloacae 963) [µg/mL]	MIC (S. aureus FAD209P JC-1) [µg/mL]
C[C@@H](O)[C@H]1C(=O)N2C(C(=O)O)=C(C3COCCO3)S[C@H]12 (mixture of isomers) [SUN 4742, Potassium (1'R, 2"s, 5R, 6S and 1'R, 2"R, 5R, 6S)-6-(1'-hydroxyethyl)-2-(2"-paradioxanyl)penem-3-carboxylate]	0.1	0.05	0.78	0.78	0.78	6.25	3.13	0.05	0.1	6.25	1.56	0.78	6.25	0.05
C[C@@H](O)[C@H]1C(=O)N2C(C(=O)O)=C(Cc3ccsc3)S[C@H]12 (relative stereo) [SUN 3514, Potassium (1'R, 5R, 6S and 1'S, 5S, 6R)-6-(1'-hydroxyethyl)-2-(3"-thiophenemethyl)penem-3-carboxylate, reference compound]	0.78	0.39	25	0.39	6.25	50	50	0.39	0.2	8.13	> 50	0.39	> 50	0.05
CCSCC1=C(C(=O)O)N2C(=O)[C@H]([C@@H](C)O)[C@H]2S1 (relative stereo) [SUN 3515, Potassium (1'R, 5R, 6S and 1'S, 5S, 6R)-2-ethylmethylthio)-6-(1'-hydroxyethyl)-penem-3-carboxylate, reference compound]	0.78	0.2	12.5	0.78	1.56	25	25	0.1	0.2	3.13	25	0.39	50	0.1
CCOCC1=C(C(=O)O)N2C(=O)[C@H]([C@@H](C)O)[C@H]2S1 (relative stereo) [SUN 3519, Potassium (1'R, 5R, 6S and 1's, 5S, 6R)-2-(ethoxymethyl)-6-(1'-hydroxyethyl)-penem-3-carboxylate, reference compound]	1.56	0.1	6.25	1.56	1.56	12.5	6.25	0.1	0.2	6.25	6.25	0.39	12.5	0.2
COCC1=C(C(=O)O)N2C(=O)[C@H]([C@@H](C)O)[C@H]2S1 (relative stereo) [SUN 3585, Potassium (1'R, 5R, 6S and 1'S, 5S, 6R)-6-(1-hydroxyethyl)-2-(methoxymethyl)penem-3-carboxylate, reference compound]	0.78	0.1	0.78	1.56	0.78	3.13	0.78	0.05	0.1	6.25	0.78	0.78	3.13	0.1
C[C@@H](O)[C@H]1C(=O)N2C(C(=O)O)=C(C3CCCO3)S[C@H]12 (relative stereo) [SUN 4068, potassium (1'R, 2"R, 5R, 6S and 1'R, 2"S, 5R, 6S and 1'S, 2"R, 5S, 6R and 1'S, 2"S, 5S, 6R)-6-(1'-hydroxyethyl)-2-(2"-tetrahydrofuranyl)penem-3-carboxylate]	0.39	0.2	3.13	1.56	0.78	6.25	3.13	0.05	0.1	3.13	1.56	0.78	6.25	0.1
